Assay type in all cases: biochemical
In assay [1] the target is KIT (Homo sapiens, UniProt P10721). The assay is described as follows: Kinase inhibition assay, IC50 (Table A). As to conditions: Enzyme KIT. The procedure:
(§1) The inhibiting activity of putative kinase inhibitors and the potency of selected compounds is determined through a method of assay based on the use of the Kinase-Glo® Luminescent Kinase Assay (commercially available from Promega corporation and described in Koresawa, M. and Okabe, T. (2004) High-throughput screening with quantitation of ATP consumption: A universal non-radioisotope, homogeneous assay for protein kinase. Assay Drug Dev. Technol. 2, 153-60).
(§2) The inhibitory activity of putative kinase inhibitors and the potency of selected compounds were also determined using a trans-phosphorylation assay.
(§3) Specific peptide or protein substrates are trans-phosphorylated by their specific ser-thr or tyr kinase in the presence of ATP traced with ^33P-γ-ATP, and in the presence of their own optimal buffer and cofactors. At the end of the phosphorylation reaction, more than 98% unlabeled ATP and radioactive ATP is captured by an excess of the ion exchange dowex resin; the resin then settles down to the bottom of the reaction plate by gravity. Supernatant is subsequently withdrawn and transferred into a counting plate, then evaluated by β-counting.
(§4) Reaction conditions are target (enzyme) dependent and thus undergo individual adaptations. Also the buffer conditions may vary depending on the kinase of interest. The assay can be used with virtually any kinase and substrate combination and is suitable for all type of protein kinases, such as ABL, ACK1, AKT1, ALK, AUR1, AUR2, BRK, BUB1, CDC7/DBF4, CDK21CYCA, CHK1, CK2, EEF2K, EGFR1, EphA2, EphB4, ERK2, FAK, FGFR1, FLT3, GSK3beta, Haspin, IGFR1, IKK2, IR, JAK1, JAK2, JAK3, KIT, LCK, LYN, MAPKAPK2, MELK, MET, MNK2, MPSI, MST4, NEK6, NIM1, P38alpha, PAK-4, PDGFR, PDK1, PERK, PIM1, PIM2, PKAalpha, PKCbeta, PLK1, RET, ROS1, SULU1, Syk, TLK2, TRKA, TYK, VEGFR2, VEGFR3, ZAP70.

In assay [2] the target is ABL (Homo sapiens, UniProt P00519). Description: Kinase inhibition assay, IC50 (Table A). To be noted: Enzyme ABL. The protocol:
as §1, §2, §3, §4

For assay [3], the target named is ACK1 (Homo sapiens, UniProt Q07912). The assay is described as follows: Kinase inhibition assay, IC50 (Table A). As to conditions: Enzyme ACK1. The procedure: as §1, §2, §3, §4
Assay [4] deals with LYN (Homo sapiens, UniProt P07948). The assay is described as follows: Kinase inhibition assay, IC50 (Table A). To be noted: Enzyme LYN. The procedure: as §1, §2, §3, §4
Assay [5] addresses ALK (Homo sapiens, UniProt Q9UM73). The assay is described as follows: Kinase inhibition assay, IC50 (Table A). As to conditions: Enzyme ALK. The protocol: as §1
As example herein are reported the assay conditions used for testing the compounds of formula (I) against ALKtide YFF APCo kinase; • ATP concentration: 1 μM • Enzyme concentration: 100 nM • Reaction buffer: Hepes 50 mM pH 7.5, MgCl2 5 mM, MnCl2 1 mM, DTT 1 mM, Na3VO4 3 uM, 0.2 mg/ml BSA. • Assay procedure: add 5 ul compound of formula (I) (3×), add 5 μl ATP/S mix (3×) in buffer 1×; add 5 μl enzyme in buffer 2×+3×BSA; for the blank, add 5 μl buffer 2×+3×BSA without enzyme. After 90 minutes of incubation, add 15 μl/well of Kinase-Glo reagent. After 60-90 minutes of incubation to stabilize the luminescent signal, the plates are read on a ViuwLux instrument.
as §2, §3
Reaction conditions are target (enzyme) dependent and thus undergo individual adaptations. Also the buffer conditions may vary depending on the kinase of interest. […]

The target in assay [6] is FGFR1 (Homo sapiens, UniProt P11362). The assay is described as follows: Kinase inhibition assay, IC50 (Table A). To be noted: Enzyme FGFR1. The protocol:
as §1, §2, §3, §4

The target in assay [7] is BRK (Homo sapiens, UniProt Q13882). Description: Kinase inhibition assay, IC50 (Table A). To be noted: Enzyme BRK. The protocol: as §1, §2, §3, §4
The target of assay [8] is LCK (Homo sapiens, UniProt P06239). The assay is described as follows: Kinase inhibition assay, IC50 (Table A). To be noted: Enzyme LCK. The protocol: as §1, §2, §3, §4
For assay [9], the target named is VEGFR3 (Homo sapiens, UniProt P35916). Description: Kinase inhibition assay, IC50 (Table A). To be noted: Enzyme VEGFR3. The protocol: as §1, §2, §3, §4
Assay [10] concerns the target PKCbeta (Homo sapiens, UniProt P05771). Description: Kinase inhibition assay, IC50 (Table A). As to conditions: Enzyme PKCbeta. The procedure:
as §1, §2, §3, §4

Assay [11] has as its target EGFR1 (Homo sapiens, UniProt P00533). Description: Kinase inhibition assay, IC50 (Table A). As to conditions: Enzyme EGFR1. The protocol:
as §1, §2, §3, §4

For assay [12], the target named is CDC7/DBF4 (Homo sapiens, UniProt O00311). The assay is described as follows: Inhibition assay of Cdc7 activity (Dowex resin capture, 33P-ATP, MCM2 substrate). To be noted: Enzyme CDC7/DBF4. The protocol: as §2, §3
(§5) As example herein are reported the assay conditions used for testing the compounds of formula (I) against cdc7 and cdk2 kinase.
Inhibition Assay of Cdc7 Activity
The inhibiting activity of putative Cdc7 inhibitors and the potency of selected compounds is determined through a method of assay based on the use of Dowex resin capture technology.
The assay consists of the transfer of radioactivity labeled phosphate moiety by the kinase to an acceptor substrate.
The resulting ^33P-labeled product is separated from unreacted tracer, transferred into a scintillation cocktail and light emitted is measured in a scintillation counter. […]

In assay [13] the target is T1, CDK2/CYCA (Homo sapiens, UniProt P24941).
T1 construct: host or cells: baculovirus expression system (co-expression)
The assay is described as follows: Inhibition assay of Cdk2/Cyclin A activity (33P-ATP, histone H1 substrate). As to conditions: Enzyme CDK2/CYCA. The procedure: as §2, §3, §5
To each well of the plate were added: • 10 μl test compound (10 increasing concentrations in the nM to uM range to generate a dose-response curve). The solvent for test compounds contained 3% DMSO. (final concentration 1%) • 10 μl substrate MCM2 ([…] final concentration), a mixture of cold ATP ([…] final concentration) and radioactive ATP (1/5000 molar ratio with cold ATP). • 10 μl enzyme (Cdc7/Dbf4, 2 nM final concentration) that started the reaction. […]

Assay [14] addresses GSK3beta (Homo sapiens, UniProt P49841). Description: Kinase inhibition assay, IC50 (Table A). To be noted: Enzyme GSK3beta. The procedure: as §1, §2, §3, §4
Assay [15] addresses MELK (Homo sapiens, UniProt Q14680). Description: Kinase inhibition assay, IC50 (Table A). As to conditions: Enzyme MELK. The procedure: as §1, §2, §3, §4

Consider 4 compounds from patent publication US9127015B2, “Tricyclopyrazole derivatives” (NERVIANO MEDICAL SCIENCES S.R.L., priority 2009, dated 2015).

“And” between values parts separate entries of the source, which are not always exact repeats. Equal values may be shown once.

Chain of ACK1 (Q07912 whole entry): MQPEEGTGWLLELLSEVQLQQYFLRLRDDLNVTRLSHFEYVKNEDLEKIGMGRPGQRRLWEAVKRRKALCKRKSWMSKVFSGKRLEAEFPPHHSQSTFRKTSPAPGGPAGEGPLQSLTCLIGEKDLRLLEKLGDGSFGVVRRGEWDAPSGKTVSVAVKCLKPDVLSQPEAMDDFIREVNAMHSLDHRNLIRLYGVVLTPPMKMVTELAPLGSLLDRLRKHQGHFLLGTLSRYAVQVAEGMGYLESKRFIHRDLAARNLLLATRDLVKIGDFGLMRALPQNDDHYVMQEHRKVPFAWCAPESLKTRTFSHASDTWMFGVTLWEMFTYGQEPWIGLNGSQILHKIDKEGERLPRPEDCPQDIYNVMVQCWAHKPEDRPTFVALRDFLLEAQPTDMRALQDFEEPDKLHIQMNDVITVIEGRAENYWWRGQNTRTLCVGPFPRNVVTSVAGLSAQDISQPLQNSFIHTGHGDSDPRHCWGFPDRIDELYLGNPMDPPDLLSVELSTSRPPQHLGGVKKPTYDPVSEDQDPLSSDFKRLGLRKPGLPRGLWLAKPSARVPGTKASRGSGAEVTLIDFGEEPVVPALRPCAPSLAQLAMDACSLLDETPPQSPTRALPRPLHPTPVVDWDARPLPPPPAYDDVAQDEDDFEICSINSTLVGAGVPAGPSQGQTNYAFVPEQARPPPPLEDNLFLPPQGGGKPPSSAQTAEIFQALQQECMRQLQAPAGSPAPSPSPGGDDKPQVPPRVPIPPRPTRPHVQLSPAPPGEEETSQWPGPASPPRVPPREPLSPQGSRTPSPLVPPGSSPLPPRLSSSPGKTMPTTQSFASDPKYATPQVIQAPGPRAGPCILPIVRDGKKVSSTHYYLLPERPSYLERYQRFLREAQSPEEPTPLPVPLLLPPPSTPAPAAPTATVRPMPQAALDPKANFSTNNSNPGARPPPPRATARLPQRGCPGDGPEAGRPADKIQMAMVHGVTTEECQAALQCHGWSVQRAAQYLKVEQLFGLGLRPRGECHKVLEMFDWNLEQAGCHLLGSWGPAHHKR
Chain of ABL (P00519 whole entry): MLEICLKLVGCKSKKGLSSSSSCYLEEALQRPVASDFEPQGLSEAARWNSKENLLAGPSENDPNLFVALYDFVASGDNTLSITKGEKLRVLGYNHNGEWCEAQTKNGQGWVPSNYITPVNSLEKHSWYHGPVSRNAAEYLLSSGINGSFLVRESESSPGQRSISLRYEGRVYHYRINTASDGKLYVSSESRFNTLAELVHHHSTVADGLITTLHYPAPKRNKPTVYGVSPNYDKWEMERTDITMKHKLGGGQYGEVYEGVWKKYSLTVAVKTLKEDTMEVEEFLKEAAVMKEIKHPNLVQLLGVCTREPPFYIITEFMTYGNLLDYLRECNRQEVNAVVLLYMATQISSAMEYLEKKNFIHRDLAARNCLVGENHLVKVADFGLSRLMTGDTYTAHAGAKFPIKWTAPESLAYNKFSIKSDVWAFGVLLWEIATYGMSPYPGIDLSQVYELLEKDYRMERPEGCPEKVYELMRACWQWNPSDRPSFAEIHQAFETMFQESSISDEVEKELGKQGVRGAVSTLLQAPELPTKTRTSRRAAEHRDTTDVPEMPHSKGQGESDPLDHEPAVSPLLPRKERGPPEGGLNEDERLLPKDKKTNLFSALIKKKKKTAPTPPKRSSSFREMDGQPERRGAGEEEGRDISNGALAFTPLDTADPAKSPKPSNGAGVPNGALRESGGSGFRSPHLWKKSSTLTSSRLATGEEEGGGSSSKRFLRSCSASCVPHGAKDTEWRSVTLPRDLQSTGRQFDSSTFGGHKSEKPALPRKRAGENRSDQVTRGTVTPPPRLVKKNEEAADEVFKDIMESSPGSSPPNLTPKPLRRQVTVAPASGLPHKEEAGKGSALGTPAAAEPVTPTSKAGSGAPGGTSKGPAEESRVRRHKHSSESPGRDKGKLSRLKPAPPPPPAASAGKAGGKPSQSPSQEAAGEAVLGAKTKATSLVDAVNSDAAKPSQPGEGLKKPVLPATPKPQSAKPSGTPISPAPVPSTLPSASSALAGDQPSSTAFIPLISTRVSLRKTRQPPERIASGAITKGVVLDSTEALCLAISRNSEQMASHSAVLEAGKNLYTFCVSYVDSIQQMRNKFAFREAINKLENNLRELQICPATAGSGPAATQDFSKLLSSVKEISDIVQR
Chain of KIT (P10721 26-976): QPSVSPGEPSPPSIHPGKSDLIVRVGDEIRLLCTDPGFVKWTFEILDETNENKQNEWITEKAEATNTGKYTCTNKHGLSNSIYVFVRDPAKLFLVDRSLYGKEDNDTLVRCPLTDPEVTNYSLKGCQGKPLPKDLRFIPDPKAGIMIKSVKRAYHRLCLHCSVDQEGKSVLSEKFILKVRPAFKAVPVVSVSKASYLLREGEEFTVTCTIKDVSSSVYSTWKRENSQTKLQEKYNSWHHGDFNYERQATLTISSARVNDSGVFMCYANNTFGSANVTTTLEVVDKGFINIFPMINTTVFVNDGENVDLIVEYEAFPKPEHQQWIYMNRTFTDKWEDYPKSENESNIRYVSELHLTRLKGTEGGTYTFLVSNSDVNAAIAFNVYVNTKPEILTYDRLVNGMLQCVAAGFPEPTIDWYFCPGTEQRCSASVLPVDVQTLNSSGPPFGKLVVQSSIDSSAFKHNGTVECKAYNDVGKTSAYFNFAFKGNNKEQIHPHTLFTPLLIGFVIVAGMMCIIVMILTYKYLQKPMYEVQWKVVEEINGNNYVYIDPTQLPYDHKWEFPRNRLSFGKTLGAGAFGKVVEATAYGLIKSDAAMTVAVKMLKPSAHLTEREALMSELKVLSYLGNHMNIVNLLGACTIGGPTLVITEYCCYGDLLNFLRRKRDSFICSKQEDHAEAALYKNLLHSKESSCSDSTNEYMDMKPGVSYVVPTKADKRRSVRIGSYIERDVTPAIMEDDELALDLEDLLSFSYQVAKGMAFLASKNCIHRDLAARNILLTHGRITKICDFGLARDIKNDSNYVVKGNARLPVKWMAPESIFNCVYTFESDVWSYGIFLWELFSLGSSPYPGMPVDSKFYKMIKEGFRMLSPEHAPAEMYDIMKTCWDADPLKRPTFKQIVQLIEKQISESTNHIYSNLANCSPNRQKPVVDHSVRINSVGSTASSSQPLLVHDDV
Chain of FGFR1 (P11362 22-822): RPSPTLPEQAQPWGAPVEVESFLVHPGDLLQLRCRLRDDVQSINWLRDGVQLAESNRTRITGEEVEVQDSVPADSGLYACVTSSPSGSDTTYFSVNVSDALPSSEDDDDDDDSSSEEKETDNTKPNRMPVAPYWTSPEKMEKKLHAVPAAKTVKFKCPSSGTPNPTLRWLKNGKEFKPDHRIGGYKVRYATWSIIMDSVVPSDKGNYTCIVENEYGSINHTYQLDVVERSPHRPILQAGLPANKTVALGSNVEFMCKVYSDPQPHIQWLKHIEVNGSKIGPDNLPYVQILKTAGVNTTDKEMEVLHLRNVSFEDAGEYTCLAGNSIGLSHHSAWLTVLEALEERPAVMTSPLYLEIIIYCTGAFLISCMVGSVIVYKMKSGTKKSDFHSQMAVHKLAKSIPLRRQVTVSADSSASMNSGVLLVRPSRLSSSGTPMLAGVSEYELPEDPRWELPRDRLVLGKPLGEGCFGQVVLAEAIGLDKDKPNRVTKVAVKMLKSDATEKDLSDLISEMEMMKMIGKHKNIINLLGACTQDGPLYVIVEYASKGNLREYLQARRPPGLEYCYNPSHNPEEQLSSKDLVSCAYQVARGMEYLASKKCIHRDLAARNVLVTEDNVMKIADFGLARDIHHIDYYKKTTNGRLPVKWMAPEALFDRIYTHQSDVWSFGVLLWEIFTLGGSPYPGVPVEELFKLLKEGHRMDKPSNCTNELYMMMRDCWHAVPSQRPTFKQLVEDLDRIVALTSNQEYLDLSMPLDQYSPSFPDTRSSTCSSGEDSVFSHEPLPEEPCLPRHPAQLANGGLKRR
Chain of LCK (P06239 whole entry): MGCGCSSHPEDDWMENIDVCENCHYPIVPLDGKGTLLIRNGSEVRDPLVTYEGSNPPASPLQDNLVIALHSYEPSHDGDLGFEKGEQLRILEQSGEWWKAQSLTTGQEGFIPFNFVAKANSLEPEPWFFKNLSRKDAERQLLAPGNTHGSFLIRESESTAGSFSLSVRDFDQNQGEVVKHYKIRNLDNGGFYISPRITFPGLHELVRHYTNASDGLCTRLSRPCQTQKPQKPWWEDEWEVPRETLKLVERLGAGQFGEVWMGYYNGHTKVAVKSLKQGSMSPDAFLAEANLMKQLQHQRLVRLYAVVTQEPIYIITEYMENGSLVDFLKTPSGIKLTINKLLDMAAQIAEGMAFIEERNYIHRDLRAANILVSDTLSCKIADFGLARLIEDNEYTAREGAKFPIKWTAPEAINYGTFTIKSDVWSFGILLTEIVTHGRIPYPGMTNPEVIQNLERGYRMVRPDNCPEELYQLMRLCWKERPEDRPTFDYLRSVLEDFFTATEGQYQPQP
Chain of BRK (Q13882 whole entry): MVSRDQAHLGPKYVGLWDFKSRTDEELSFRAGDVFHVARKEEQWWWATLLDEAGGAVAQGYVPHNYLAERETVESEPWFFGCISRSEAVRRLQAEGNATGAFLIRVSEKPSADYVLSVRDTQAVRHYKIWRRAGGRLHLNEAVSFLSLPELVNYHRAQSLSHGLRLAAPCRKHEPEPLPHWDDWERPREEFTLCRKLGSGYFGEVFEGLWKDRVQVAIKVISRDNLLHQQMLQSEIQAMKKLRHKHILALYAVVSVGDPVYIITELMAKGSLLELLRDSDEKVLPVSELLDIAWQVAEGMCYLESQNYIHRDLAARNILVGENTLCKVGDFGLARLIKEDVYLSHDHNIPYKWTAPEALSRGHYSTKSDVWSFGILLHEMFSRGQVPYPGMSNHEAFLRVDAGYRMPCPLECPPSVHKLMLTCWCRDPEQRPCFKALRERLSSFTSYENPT

By IC50 is commonly meant the point on the concentration scale where inhibition reaches its midpoint. Turning to `Cc1ccc(C(=O)Nc2n[nH]c3c2CCn2cc(C(=O)N4CCCC4)cc2-3)c(C)c1` [Example A35-M1-B8, 2,4-dimethyl-N-[8-(pyrrolidin-1-ylcarbonyl)-4,5-dihydro-1H-pyrazolo[4,3-g]indolizin-3-yl]benzamide], the IC50 in assay [1] is 3520 nM; in assay [2], 3.5 µM; in assay [3] it was 490 nM and 300 nM; in assay [4], 2130 nM.
Consider `Cc1ccc(C(=O)Nc2n[nH]c3c2CCn2cc(C(=O)N4CCC(N5CCCCC5)CC4)cc2-3)c(C)c1` [Example A35-M1-B34], for which the concentration for half-maximal inhibition (IC50) in [5] is 4.91 µM; in assay [2], 4.31 µM; in assay [6] it was 5.76 µM; in [7], 4.35 µM; in [8], 3500 nM; in [9], 3.98 µM. The IC50 in assay [3] is 1080 nM and 1580 nM; in assay [10], 4.17 µM.
Take `O=C(NCCN1CCCC1)c1cc2n(c1)CCc1c(NC(=O)c3ccccc3Cl)n[nH]c1-2` [Example A5-M1-B43]: the concentration for half-maximal inhibition (IC50) in assay [5] stood at 3.4 µM; in [1], 1310 nM; in assay [2], 0.54 µM; in assay [6] it was 7.27 µM; in assay [11], 7.87 µM; in assay [7], 4.68 µM. Also, the 50% inhibitory concentration (IC50) was 590 nM in assay [8] and 1010 nM in [3].
In the case of `CNC(=O)c1cc2n(c1)CCc1c(NC(=O)c3ccc(N4CCN(C)CC4)cc3)n[nH]c1-2` [Example A16-M1-B18], the IC50 in assay [12] worked out at 2990 nM; in [13], 1900 nM; in [1] it was 2610 nM; in [14] it was 1920 nM; in assay [15], 6.33 µM.
